How the values were obtained:
Assay type in all cases: in vivo, Amaranthus palmeri
[1] = test system: AMAPA WR-2015-008 (resistant against glyphosate and metribuzin (PSII-inhibitor), PPO-, HPPD- and ALS-inhibitor herbicides); assay: Greenhouse pre-emergence herbicidal activity, AMAPA WR-2015-008; settings: mean of 6
Text: (§1) Test conditions in the greenhouse trial, herbicidal activity against weed plants pre-emergence.
(§2) Seeds of weed plants and crop plants are sown in 3.5 inches (8.89 cm) pots containing a 50:50 mix of Redi-earth (Sun Gro, Bellevue, Washington) and soil at 0.5 to 0.75 inches (1.27 to 1.905 cm) deep. The compounds of the disclosure, formulated in the form of wettable powders (WP) or emulsifiable concentrates (EC), are then applied to the dry soil surface, in the form of an aqueous suspension or emulsion, using a laboratory track sprayer calibrated to deliver 15 gallons per acre (140.31 L/ha). Following the treatment, the pots are placed in a greenhouse and overhead irrigated with 0.25 inches (0.635 cm) for activation and maintained under good growth conditions for the test plants. Visual scoring of the damage to the trial plants takes place after a trial time of 3 weeks in comparison to untreated controls (herbicidal activity in percent (%): 100% activity=plants have died; 0% activity=as control plants). The results are set out in the tables which follow.
AMAPA (WR-2015-008) Amaranthus palmeri (resistant against glyphosate and metribuzin (PSII-inhibitor), PPO-, HPPD- and ALS-inhibitor herbicides).
(§3) Herbicidal activity against different weeds (undesired plants) was calculated as follows: E^C=A+B−A×B/100; E^C=(A+B+C)−(A×B+A×C+B×C)/100+(A×B×C)/10000; • wherein: • A, B, C=respective value in percent of active ingredient A at a dose rate of a g/ha, ingredient B at a dose rate of b g/ha and ingredient C at a dose rate of c g/ha; • E^C=Expected value according to Colby (S. R. Colby; Weeds 15 (1967), 20-22) in % at a dose rate of a+b (+c), each in g/ha; • Δ=Difference (%) between measured value E and expected value E^C (%) (measured value minus expected value). Evaluation: • measured value E is greater than E^C: →synergism (+Δ); • measured value E is equal to E^C: →additive effect; • measured value E is smaller than E^C: →antagonism (−Δ);
(§4) All values in Tables 1 to 15 are mean values of 6 repetitions.

[2] = test system: AMAPA WR-2013-043 (resistant against HPPD-inhibitor herbicides); assay: Greenhouse pre-emergence herbicidal activity, AMAPA WR-2013-043; settings: 3 weeks, mean of 6
Text: as §1, §2
AMAPA (WR-2013-043) Amaranthus palmeri (resistant against HPPD-inhibitor herbicides) (Kansas).
as §3, §4

[3] = test system: AMAPA WR-2015-002 (resistant against glyphosate, PPO-, HPPD- and ALS-inhibitor herbicides); assay: Greenhouse pre-emergence herbicidal activity, AMAPA WR-2015-002; settings: 3 weeks, mean of 6
Text: as §1, §2
AMAPA (WR-2015-002) Amaranthus palmeri (resistant against glyphosate, PPO-, HPPD- and ALS-inhibitor herbicides) (Tennessee).
as §3, §4

O=C(Nc1ccc(F)cc1F)c1cccnc1Oc1cccc(C(F)(F)F)c1 [DFF, 2′,4′-difluoro-2-[3-(trifluoromethyl)phenoxy]pyridine-3-carboxanilide]
Activity [%] against AMAPA WR-2015-008 ([1]; rate 37 g/ha, visual scoring after 3 weeks): 40.8%
Activity [%] against AMAPA WR-2015-008 ([1]; rate 75 g/ha, 3 weeks): 51.7%
Activity [%] against AMAPA WR-2013-043 ([2]; rate 75 g/ha): 47.5%
Activity [%] against AMAPA WR-2013-043 ([2]; rate 150 g/ha): 63.3%
Activity [%] against AMAPA WR-2015-002 ([3]; rate 75 g/ha): 45.8%
Activity [%] against AMAPA WR-2015-002 ([3]; rate 150 g/ha): 71.7%

CSc1nnc(C(C)(C)C)c(=O)n1N [MRB, 4-amino-6-(1,1-dimethylethyl)-3-(methylthio)-1,2,4-triazin-5(4H)-one]
Activity [%] against AMAPA WR-2015-008 ([1]; rate 75 g/ha, 3 weeks): 39.2%
Activity [%] against AMAPA WR-2015-008 ([1]; rate 150 g/ha, 3 weeks): 45%

CS(=O)(=O)c1ccc(C(=O)C2C(=O)CCCC2=O)c([N+](=O)[O-])c1 [MST, 2-[4-(methylsulfonyl)-2-nitrobenzoyl]cyclohexane-1,3-dione]
Activity [%] against AMAPA WR-2015-008 ([1]; rate 52 g/ha, 3 weeks): 57.7%
Activity [%] against AMAPA WR-2015-008 ([1]; rate 105 g/ha, 3 weeks): 85%
Activity [%] against AMAPA WR-2013-043 ([2]; rate 52 g/ha): 55.0%
Activity [%] against AMAPA WR-2013-043 ([2]; rate 105 g/ha): 70.5%
Activity [%] against AMAPA WR-2015-002 ([3]; rate 105 g/ha): 82.5%

Source: patent US12616200B2, “Herbicidal combinations comprising diflufenican and mesotrione” (priority 2020, dated 2026)
